Read-outs that look alike come from different tables or passages of the source. Bridge positions count the residues as written; N and C are the ends. Square brackets hold non-standard residues; d marks the D form. Peptide text beside a SMILES is read from it. * marks the point of attachment. X1 = CC[C@H](C)CCCCC(=O)*; Dab = NCC[C@H](N)C(=O)O
Legend:
[1] = target: T1, megalin (Homo sapiens, UniProt P98164); assay: Megalin substrate FITC-BSA uptake by Calu-3 cells, confocal microscopy; type: cell-based; conditions: 4 h; for ratio of FITC-BSA to nucleus integrated density: 100 mg/L FITC-BSA, Calu-3 cells, FITC-BSA only 0.58 ± 0.04; for effect on cellular uptake of FITC-BSA: polymyxin B 30 and 60 mg/L, tobramycin 70 and 140 mg/L
T1 construct: endogenous in cells; host or cells: Calu-3 (human lung epithelial cells)
T1 sequence (P98164 26-4655): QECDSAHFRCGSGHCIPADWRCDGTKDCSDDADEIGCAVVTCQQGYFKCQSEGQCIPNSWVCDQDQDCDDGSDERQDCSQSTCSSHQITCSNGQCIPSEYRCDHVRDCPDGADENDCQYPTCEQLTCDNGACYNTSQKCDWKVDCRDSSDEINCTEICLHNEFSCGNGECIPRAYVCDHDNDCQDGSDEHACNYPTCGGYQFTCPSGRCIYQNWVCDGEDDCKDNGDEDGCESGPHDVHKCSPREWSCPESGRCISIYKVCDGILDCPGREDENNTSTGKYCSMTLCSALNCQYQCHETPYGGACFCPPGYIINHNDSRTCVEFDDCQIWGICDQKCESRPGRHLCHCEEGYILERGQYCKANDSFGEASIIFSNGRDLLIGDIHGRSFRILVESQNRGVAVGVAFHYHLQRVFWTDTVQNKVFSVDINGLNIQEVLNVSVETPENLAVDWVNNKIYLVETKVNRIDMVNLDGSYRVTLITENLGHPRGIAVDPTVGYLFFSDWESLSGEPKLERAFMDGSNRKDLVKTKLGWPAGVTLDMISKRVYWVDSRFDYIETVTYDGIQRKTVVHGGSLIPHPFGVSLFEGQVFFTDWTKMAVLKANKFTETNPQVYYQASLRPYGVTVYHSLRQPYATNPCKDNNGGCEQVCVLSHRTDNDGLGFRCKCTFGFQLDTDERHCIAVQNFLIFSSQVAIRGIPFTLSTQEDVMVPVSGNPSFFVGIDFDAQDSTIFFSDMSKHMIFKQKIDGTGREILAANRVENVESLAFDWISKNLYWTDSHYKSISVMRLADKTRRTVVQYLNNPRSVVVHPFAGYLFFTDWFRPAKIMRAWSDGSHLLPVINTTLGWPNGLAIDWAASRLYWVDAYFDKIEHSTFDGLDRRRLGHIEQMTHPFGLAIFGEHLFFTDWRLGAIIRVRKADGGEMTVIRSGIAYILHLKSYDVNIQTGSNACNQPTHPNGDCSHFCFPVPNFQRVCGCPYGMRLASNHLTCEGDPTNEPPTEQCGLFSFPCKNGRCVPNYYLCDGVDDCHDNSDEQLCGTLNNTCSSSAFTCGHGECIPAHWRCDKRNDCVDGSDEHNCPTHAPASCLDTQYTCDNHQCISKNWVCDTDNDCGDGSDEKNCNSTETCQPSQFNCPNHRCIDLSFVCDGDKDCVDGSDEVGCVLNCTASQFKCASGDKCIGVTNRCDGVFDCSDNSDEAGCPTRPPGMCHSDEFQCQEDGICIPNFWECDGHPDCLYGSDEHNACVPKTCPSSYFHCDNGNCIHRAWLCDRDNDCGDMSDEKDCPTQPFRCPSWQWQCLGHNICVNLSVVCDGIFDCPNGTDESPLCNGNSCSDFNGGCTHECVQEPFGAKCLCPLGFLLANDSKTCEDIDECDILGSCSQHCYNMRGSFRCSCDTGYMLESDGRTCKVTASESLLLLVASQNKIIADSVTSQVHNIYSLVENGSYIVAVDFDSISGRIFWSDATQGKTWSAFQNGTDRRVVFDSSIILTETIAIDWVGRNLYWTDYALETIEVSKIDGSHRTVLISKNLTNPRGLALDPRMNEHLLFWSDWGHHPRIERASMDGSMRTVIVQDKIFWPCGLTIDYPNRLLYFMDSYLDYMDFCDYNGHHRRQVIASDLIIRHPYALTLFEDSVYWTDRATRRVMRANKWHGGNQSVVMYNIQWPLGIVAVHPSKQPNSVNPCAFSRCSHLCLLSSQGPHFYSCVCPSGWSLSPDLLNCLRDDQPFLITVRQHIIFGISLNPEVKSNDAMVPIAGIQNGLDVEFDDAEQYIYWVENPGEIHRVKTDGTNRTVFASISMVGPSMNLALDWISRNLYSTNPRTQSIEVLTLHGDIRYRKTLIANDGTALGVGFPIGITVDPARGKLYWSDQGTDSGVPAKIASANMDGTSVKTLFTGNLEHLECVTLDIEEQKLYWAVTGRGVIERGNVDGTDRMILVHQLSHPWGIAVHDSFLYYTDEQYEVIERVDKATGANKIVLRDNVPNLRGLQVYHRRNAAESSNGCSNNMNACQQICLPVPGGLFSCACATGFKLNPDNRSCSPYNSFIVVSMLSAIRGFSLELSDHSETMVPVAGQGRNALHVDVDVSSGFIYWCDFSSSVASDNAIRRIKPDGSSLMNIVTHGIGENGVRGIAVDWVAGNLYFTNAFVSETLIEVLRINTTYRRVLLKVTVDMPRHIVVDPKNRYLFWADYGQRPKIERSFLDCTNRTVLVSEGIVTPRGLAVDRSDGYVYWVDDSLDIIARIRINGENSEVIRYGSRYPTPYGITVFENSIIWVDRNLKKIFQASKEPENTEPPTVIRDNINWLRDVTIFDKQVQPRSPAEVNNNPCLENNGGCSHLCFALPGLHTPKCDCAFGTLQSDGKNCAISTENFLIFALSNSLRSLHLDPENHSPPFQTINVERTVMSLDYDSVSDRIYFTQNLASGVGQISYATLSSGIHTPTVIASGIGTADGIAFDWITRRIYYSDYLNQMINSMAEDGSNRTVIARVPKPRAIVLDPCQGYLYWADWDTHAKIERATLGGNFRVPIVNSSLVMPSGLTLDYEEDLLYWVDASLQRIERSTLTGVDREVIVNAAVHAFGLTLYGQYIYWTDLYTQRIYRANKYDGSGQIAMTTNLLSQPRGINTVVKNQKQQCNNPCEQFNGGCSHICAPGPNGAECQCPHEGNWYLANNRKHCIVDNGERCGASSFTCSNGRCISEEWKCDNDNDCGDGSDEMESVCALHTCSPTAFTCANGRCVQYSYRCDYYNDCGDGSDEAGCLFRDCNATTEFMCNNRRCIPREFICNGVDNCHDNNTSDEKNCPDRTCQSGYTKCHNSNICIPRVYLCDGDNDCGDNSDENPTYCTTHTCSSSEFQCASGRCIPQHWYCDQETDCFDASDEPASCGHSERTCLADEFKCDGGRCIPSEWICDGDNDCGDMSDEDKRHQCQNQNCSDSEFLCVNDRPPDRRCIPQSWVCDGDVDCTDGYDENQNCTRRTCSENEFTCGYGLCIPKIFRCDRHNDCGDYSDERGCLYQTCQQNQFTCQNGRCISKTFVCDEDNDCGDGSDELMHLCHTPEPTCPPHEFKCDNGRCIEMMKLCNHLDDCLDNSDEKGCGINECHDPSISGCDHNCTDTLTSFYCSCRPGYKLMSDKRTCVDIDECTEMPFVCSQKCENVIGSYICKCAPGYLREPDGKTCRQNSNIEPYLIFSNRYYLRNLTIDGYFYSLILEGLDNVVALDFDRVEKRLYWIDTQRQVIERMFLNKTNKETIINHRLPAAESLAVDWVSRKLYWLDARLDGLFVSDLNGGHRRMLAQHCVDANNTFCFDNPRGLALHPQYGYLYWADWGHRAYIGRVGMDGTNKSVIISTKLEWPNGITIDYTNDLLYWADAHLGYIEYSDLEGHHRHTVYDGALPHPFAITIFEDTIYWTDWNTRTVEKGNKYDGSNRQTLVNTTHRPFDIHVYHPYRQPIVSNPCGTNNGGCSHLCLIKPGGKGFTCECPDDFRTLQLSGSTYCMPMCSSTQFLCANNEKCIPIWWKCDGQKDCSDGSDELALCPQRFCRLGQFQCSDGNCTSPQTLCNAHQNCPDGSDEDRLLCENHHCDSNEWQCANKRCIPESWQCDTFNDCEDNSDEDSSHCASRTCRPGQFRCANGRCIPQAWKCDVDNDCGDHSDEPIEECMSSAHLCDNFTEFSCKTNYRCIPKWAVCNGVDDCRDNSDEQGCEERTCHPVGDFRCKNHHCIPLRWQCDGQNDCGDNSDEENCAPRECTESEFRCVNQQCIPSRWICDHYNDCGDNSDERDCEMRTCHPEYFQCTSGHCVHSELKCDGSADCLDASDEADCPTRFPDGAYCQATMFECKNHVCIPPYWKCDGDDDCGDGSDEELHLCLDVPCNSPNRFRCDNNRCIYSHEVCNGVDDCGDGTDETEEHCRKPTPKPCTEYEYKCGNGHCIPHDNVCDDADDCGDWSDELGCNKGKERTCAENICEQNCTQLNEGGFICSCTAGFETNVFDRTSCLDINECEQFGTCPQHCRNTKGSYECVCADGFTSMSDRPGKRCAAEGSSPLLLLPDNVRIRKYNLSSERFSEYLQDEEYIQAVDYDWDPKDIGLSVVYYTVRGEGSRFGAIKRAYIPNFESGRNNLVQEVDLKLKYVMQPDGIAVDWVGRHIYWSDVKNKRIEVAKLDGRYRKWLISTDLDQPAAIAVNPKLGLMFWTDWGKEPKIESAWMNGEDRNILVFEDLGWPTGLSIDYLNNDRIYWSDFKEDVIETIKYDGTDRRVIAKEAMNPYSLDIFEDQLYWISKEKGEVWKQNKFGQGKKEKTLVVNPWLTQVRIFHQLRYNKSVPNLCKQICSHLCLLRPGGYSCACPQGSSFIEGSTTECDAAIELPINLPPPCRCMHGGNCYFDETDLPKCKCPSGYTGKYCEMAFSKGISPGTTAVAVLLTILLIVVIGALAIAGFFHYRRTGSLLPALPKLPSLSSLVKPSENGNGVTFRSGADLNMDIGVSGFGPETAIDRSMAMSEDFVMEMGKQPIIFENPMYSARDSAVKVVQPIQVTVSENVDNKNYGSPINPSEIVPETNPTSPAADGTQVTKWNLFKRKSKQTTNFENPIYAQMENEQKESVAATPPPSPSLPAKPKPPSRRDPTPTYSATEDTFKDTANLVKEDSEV
Protocol: As albumin is an endogenous substrate of megalin [30], cellular distribution of fluorescein-labeled BSA (FITC-BSA) was evaluated in the presence of polymyxin B and tobramycin to investigate the functional activity of megalin in Calu-3 cells. Calu-3 cells were grown in an eight-well chamber slide at a density of 2 × 10^5 cell/mL in 10% FBS supplemented DMEM/F-12 cell culture media. After overnight incubation at 37 °C and 5% CO2, cells were washed to remove old media and were incubated for 4 h with 100 μg/mL of FITC-BSA in fresh cell culture media and in the presence and absence of polymyxin B (30 and 60 mg/L) and tobramycin (70 and 140 mg/L). After 4 h, cells were washed and stained with Hoechst for nucleus staining and cell mask deep red for cell membrane staining. Cells were finally washed and covered with Prolong gold antifade mounting reagent and mounted on a 60× oil immersion objective for imaging. Images were taken with a Nikon Eclipse T1 confocal microscope. Images were processed with Nikon (NIS-Elements) and Image J (version 1.54) software.

[2] = system: Calu-3 cell monolayer; assay: Transport study in air liquid interface Calu-3 cell monolayer; conditions: LC-MS/MS; for transport rate, apparent permeability coefficient (Papp), in combination compared to drug alone / amount remaining in the apical chamber, combination compared to drug alone / transport from apical chamber to basal medium: Calu-3 ALI monolayer; for transport rate, apparent permeability coefficient (Papp), in combination compared to drug alone: apical to basal, polymyxin B 30 mg/L + tobramycin 70 mg/L vs each alone, p < 0.0001; for transport rate, apparent permeability coefficient (Papp), in combination compared to drug alone / transport from apical chamber to basal medium / accumulation in Calu-3 cell monolayer: HBSS; for amount remaining in the apical chamber, combination compared to drug alone: after 4 h of transport study; for transport from apical chamber to basal medium: 4 h; for accumulation in Calu-3 cell monolayer: at 4 h
Protocol: Human lung epithelial Calu-3 cells were grown in a 6.5 mm cell culture insert in a trans-well plate for 3 days using both apical and basal media. The apical media was withdrawn to let the cells grow in an air liquid interface (ALI). The system was maintained for 14 days, with the basal media changed every other day. The culture medium was DMEM/F-12 supplemented with 10% (v/v, FBS) and 1% (v/v) nonessential amino acid, and penicillin and streptomycin (100 units/mL of penicillin and 100 mg/L of streptomycin). After 14 days of differentiation at the ALI condition, the trans-epithelial electrical resistance (TEER) value was measured to investigate the integrity of the formed Calu-3 monolayer.
The transport study was conducted in the Calu-3 cell monolayer according to our previously published ALI culture protocol. TEER values were measured before and after the transport study to ensure the cell monolayer integrity was maintained. As the transport process was done in HBSS buffer, the drug solution was also prepared in HBSS buffer. The cell monolayer inserts were incubated with HBSS buffer for 30 min to equilibrate. The following drug solutions were used in the transport process: polymyxin B 30 mg/L, tobramycin 70 mg/L, and the combination of polymyxin B 30 mg/L and tobramycin 70 mg/L. An aliquot of 200 µL of drug solution was added to the apical chamber and 600 µL of HBSS buffer was added to the basal chamber. The samples were collected from the basal chamber every hour for a total of 4 h and the basal chamber was refilled with fresh HBSS buffer. Transported drug from the basal chamber, remaining drug from the apical chamber, and drug accumulated in the cell monolayer were extracted and analyzed using a reversed-phase LC/MS system. Drug extraction and LC/MS analysis was performed according to a previously published protocol.
For the transported samples, all buffer in the basal chamber was collected to a centrifuge tube. Colistin (1 mg/L) was added as the internal standard, and formic acid (0.1%, v/v) was added to each sample. For drug analysis in the cell, the insert was cut using a sharp scalpel. The cells in the membrane were lysed overnight with RIPA buffer and 200 µL of each sample was used to extract the drug using a protein precipitation method. Acetonitrile (400 µL) was added to the cell lysate and vortexed well to precipitate all the protein. Internal standard and formic acid were added to the samples as previously described, vortexed well, and centrifuged before transferring the supernatant into the injection vial.
The drugs were analyzed using an LC-MS/MS equipped with a C18 column (2.6 μm, 50 mm × 3 mm), a liquid chromatography system (Agilent 1200, Santa Clara, CA, USA), and a triple quadrupole mass spectrometer (Agilent 6460 QQQ, Santa Clara, CA, USA) with an electrospray ionization source. The mobile phase was 0.1% formic acid solution in water (90%) and 0.1% formic acid solution in acetonitrile (10%) with a flow rate of 0.6 mL/min. A gradient elution procedure was used, and each component was measured via multiple reaction monitoring (MRM) in the positive ionization mode (Table 1).

[3] = system: Calu-3 cells; assay: Cellular uptake of polymyxin B by confocal microscopy (anti-polymyxin B antibody, Alexa 647); type: cell-based, human; conditions: 4 h
Protocol: Polymyxin B distribution in the Calu-3 cell monolayer was investigated using confocal laser scanning microscopy (CLSM). At the end of the transport process, the Calu-3 cell monolayer was prepared for imaging. The cell monolayer was washed with phosphate-buffered saline after treatment and fixed with 4% paraformaldehyde for 15 min. The cell monolayer was then permeabilized with 0.1% triton X-100 for 10 min and blocked with 3% goat serum in 0.1% triton X-100 for 2 h. To stain intracellular polymyxin B, the cell monolayer was then incubated overnight with mouse anti-polymyxin B antibody at 4 °C in the dark. After overnight incubation, the cell monolayer was incubated with goat anti-mouse IgG conjugated with Alexa Flour™ 647 for 2 h at room temperature. The nuclei were stained with Hoechst 33342.
For the drug accumulation study, Calu-3 cells were cultured in a glass bottom 35 mm dish (Ashland, MA, USA) and were incubated with 30 mg/L polymyxin B in the absence and presence of 70 mg/L tobramycin for 4 h. […] For the drug accumulation study, the background subtracted integrated density of Alexa Flour 647 (for polymyxin B) was calculated and data were presented as mean polymyxin B intensity per cell. Cell numbers per imaging field were counted using the Hoechst 33342 intensity and ImageJ “cell counter” Macro (ImageJ version 2.9).

[4] = system: Calu-3 cell monolayer; assay: Transport in Calu-3 cell monolayer in presence of megalin inhibitor sodium maleate; type: in vitro ADME, human; conditions: for cellular accumulation / remaining in the apical chamber / intracellular accumulation normalized to protein: 2 h; for intracellular accumulation normalized to protein: Calu-3 monolayer lysate (RIPA)
Protocol: The transport behavior of polymyxin B and tobramycin in the Calu-3 cell monolayer were also evaluated in the presence of 8 mg/mL of sodium maleate, an agent known to inhibit megalin receptors via shedding of the megalin protein [23]. Calu-3 cell monolayer in trans-well inserts was formed following our previously published ALI culture protocol. Cell monolayers were pre-incubated with 8 mg/mL of sodium maleate for 4 h and were subsequently incubated with polymyxin B and tobramycin for 2 h. Samples were collected from the apical and basal chambers of the ALI culture system, analyzed using an LC-MS/MS system, and the drug content was calculated. The cell monolayer was then lysed with lysis buffer (RIPA buffer, Catalogue 89900, Thermofisher Scientific, Waltham, MA, USA) and cellular drug content was measured. Cell lysate (25 µL) from each sample was used for protein measurement. The amount of drug accumulated in the cell was normalized according to the amount of protein present in the samples. Polymyxin B and tobramycin concentrations in the samples, in the presence and absence of the megalin inhibitor sodium maleate, were plotted and statistical significance was calculated using Graph Pad Prism (version 9).

[5] = system: human lung epithelial Calu-3 cells; type: cell-based
Protocol: Assessment of cytotoxicity was performed using aqueous solutions of polymyxin B, tobramycin, and the combination of both in human lung epithelial Calu-3 cells. This cytotoxicity assessment aimed to determine safe drug concentrations for the transport and imaging experiments. Cells were seeded in 96-well flat bottom plate (Corning, NY, USA) at a density of 2 × 10^5 cells/mL. A wide concentration range was chosen, considering a molar ratio of 1:5 polymyxin B to tobramycin based on the literature. Lactate dehydrogenase (LDH) assay was used for the measurement of cytotoxicity. Vehicle-treated cells were considered as the negative control, while 10× lysis buffer treated cells were employed as the positive control. For the imaging study, Calu-3 cells were cultured in a 35 mm glass bottom culture dish at a density of 2 × 10^5 cells/mL and were treated with a vehicle, tobramycin 700 mg/L, polymyxin B 300 mg/L, and the combination. After treatment, cells were washed with PBS and stained with PI (100 ng/mL) and DAPI (1 mg/L) for 30 min in dark. Cells were washed again with PBS and mounted for imaging with Calu-3 cell culture media.

[6] = system: renal cortex; conditions: 400 mg/kg of sodium maleate administration, within 3 h after injection; cited from earlier work
[7] = combination (polymyxin B 30 mg/L + tobramycin 70 mg/L), p < 0.0001 vs alone
[8] = drug alone (polymyxin B 30 mg/L or tobramycin 70 mg/L), cell lysate RIPA
[9] = drug alone, without sodium maleate, Calu-3 ALI monolayer, LC-MS/MS
[10] = with sodium maleate 8 mg/mL (4 h pre-incubation), Calu-3 ALI monolayer, LC-MS/MS

With `CC[C@H](C)CCCCC(=O)N[C@@H](CCN)C(=O)N[C@H](C(=O)N[C@@H](CCN)C(=O)N[C@H]1CCNC(=O)[C@H]([C@@H](C)O)NC(=O)[C@H](CCN)NC(=O)[C@H](CCN)NC(=O)[C@H](CC(C)C)NC(=O)[C@@H](Cc2ccccc2)NC(=O)[C@H](CCN)NC1=O)[C@@H](C)O` [polymyxin B, Polymyxin B] (X1-[Dab]T[Dab][Dab][Dab][dF]L[Dab][Dab]T; lactam 4-C) the “ratio of FITC-BSA to nucleus integrated density” value (“ratio of FITC-BSA” below) ([1]; 30 mg/L polymyxin B) was 0.36 ± 0.03, the “ratio of FITC-BSA” value ([1]; 60 mg/L polymyxin B) was 0.29 ± 0.02 and the “effect on cellular uptake of FITC-BSA” value [1] was “prevented the cellular uptake of FITC-BSA in a concentration-dependent manner”. The “transport rate, apparent permeability coefficient (Papp), in combination compared to drug alone” value [2] was “decreased significantly”, the “amount remaining in the apical chamber, combination compared to drug alone” value [2] was “Significantly higher amounts” and the “transport from apical chamber to basal medium” value [2, 7] was 3.9 ± 0.3%. The “accumulation in Calu-3 cell monolayer” value [2, 7] was 6.4 ± 0.1%, the “accumulation in Calu-3 cell monolayer” value [2, 8] was 21.4 ± 2.0% and the “transport from apical chamber to basal medium” value ([2]; drug alone (polymyxin B 30 mg/L), 30 min equilibration) was 7.1 ± 0.4%. For the same molecule, the “polymyxin B intensity per cell” value ([3]; combination polymyxin B 30 mg/L + tobramycin 70 mg/L, mean ± SD, p < 0.001 vs polymyxin B alone) was 932.3 ± 136.0, the “polymyxin B intensity per cell” value ([3]; polymyxin B 30 mg/L alone, Alexa 647, mean ± SD, saline control 113.0 ± 13.6) was 2259.3 ± 309.4 and the cellular accumulation [4, 9] was 26.5 ± 2.1%. For the same molecule, the “remaining in the apical chamber” value [4, 9] was 59.9 ± 1.2%, the “transported from the apical chamber to the basal chamber” value (from here on “transported from the apical chamber”) ([4]; drug alone, without sodium maleate, Calu-3 ALI monolayer, 2 h incubation, LC-MS/MS) was 13.5 ± 1.6% and the “transported from the apical chamber” value ([4]; in the presence of sodium maleate 8 mg/mL (4 h pre-incubation), Calu-3 ALI monolayer, 2 h incubation, LC-MS/MS) was 8.2 ± 0.9%. The cellular accumulation [4, 10] was 8.1 ± 0.4%, the “remaining in the apical chamber” value [4, 10] was 83.7 ± 1.3% and the “intracellular accumulation normalized to protein” value ([4]; with sodium maleate 8 mg/mL (4 h pre-incubation), LC-MS/MS) was 1.9 ± 0.04 ng/µg of protein. For the same molecule, the “intracellular accumulation normalized to protein” value ([4]; without sodium maleate, LC-MS/MS) was 6.0 ± 0.8 ng/µg of protein, the “safety of concentrations chosen for the transport study” value ([5]; 30 mg/L polymyxin B alone, 70 mg/L tobramycin alone, and their combination, based on cell viability data) was “safe” and the “cell death compared to the control” value ([5]; at 300 mg/L, LDH assay) was “significant cell death”. For the same molecule, the PI intensity ([5]; polymyxin B 300 mg/L treated Calu-3 cells, mean ± SD (n = 3), p < 0.001 vs control) was 4334.0 ± 1131.6.
For `O=C([O-])/C=C\C(=O)[O-].[Na+].[Na+]` [sodium maleate], the “decrease of renal cortex accumulation of amikacin” value [6] is given as 50%.
With `NC[C@H]1O[C@H](O[C@H]2[C@H](O)[C@@H](O[C@H]3O[C@H](CO)[C@@H](O)[C@H](N)[C@H]3O)[C@H](N)C[C@@H]2N)[C@H](N)C[C@@H]1O` [tobramycin] the “ratio of FITC-BSA” value ([1]; 70 mg/L tobramycin) was 0.41 ± 0.02, the “ratio of FITC-BSA” value ([1]; 140 mg/L tobramycin) was 0.30 ± 0.02 and the “effect on cellular uptake of FITC-BSA” value [1] was “prevented the cellular uptake of FITC-BSA in a concentration-dependent manner”. For the same molecule, the “transport rate, apparent permeability coefficient (Papp), in combination compared to drug alone” value [2] was “decreased significantly”, the “amount remaining in the apical chamber, combination compared to drug alone” value [2] was “Significantly higher amounts” and the “accumulation in Calu-3 cell monolayer” value [2, 7] was 3.8 ± 0.8%. For the same molecule, the “accumulation in Calu-3 cell monolayer” value [2, 8] was 13.2 ± 4.3%, the “transported from the apical chamber” value [4] was 11.9 ± 1.3% and the “reduction in viability of Calu-3 cells compared to the control” value [5] was “did not result in any reduction in the viability”.

— publication PMC10975719, “Tobramycin Reduces Pulmonary Toxicity of Polymyxin B via Inhibiting the Megalin-Mediated Drug Uptake in the Human Lung Epithelial Cells” (Pharmaceutics, 2024)
